For 15 molecules, IC50 and inhibition results are on record in patent US20210122730A1, “GLUCOCORTICOID RECEPTOR MODULATORS” (ORIC Pharmaceuticals, Inc., priority 2017, published 2021).

One series concerns the target T1, GR (Homo sapiens, UniProt P04150).
T1 construct: expressed in transfected cells; host or cells: CHO-K1
T1 sequence (P04150 1-777): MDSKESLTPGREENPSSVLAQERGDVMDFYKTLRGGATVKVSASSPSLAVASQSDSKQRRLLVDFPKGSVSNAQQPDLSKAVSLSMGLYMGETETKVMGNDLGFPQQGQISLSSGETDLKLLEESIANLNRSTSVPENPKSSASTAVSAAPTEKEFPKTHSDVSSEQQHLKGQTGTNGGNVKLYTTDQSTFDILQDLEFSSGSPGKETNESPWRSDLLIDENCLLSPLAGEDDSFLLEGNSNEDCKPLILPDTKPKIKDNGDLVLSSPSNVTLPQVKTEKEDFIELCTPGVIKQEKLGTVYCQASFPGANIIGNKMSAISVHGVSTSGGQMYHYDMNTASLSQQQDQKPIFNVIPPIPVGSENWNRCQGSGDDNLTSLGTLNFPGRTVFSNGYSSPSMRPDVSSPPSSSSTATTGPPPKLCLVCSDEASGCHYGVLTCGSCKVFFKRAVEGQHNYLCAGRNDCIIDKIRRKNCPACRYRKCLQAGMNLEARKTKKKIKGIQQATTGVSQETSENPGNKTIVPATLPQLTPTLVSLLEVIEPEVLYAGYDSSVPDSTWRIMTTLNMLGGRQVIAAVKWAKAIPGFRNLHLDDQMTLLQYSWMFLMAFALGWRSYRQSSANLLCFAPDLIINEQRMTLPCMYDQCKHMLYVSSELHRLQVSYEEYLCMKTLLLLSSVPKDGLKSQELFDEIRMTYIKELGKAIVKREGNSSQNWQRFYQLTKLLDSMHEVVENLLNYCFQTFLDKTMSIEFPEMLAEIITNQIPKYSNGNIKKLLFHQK
The series is described as follows: In Vitro GR Luciferase Reporter Assay (antagonist mode, CHO-K1-GR-MMTV-Luc reporter cells). It is filed as cell-based. Particulars: antagonist mode, 10 nM Dexamethasone. The procedure, abridged: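 Antagonist mode: compounds (8 serial 1:5 dilutions) added to GR-MMTV-luciferase CHO-K1 reporter cells co-exposed to 10 nM dexamethasone final, in phenol red-free DMEM plus 10% CSS. After roughly 18-24 h at 37° C, OneGlo luminescence read and IC50 calculated.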
On the technique in general: A reporter such as luciferase makes a cellular process visible.

The target of a further series is T2, CYP2C8 (Homo sapiens, UniProt P10632).
T2 construct: Pooled human microsomes were obtained from Sekisui XenoTech, KS; tissue Sekisui XenoTech, KS; host or cells: pooled human liver microsomes
T2 sequence (P10632 1-490): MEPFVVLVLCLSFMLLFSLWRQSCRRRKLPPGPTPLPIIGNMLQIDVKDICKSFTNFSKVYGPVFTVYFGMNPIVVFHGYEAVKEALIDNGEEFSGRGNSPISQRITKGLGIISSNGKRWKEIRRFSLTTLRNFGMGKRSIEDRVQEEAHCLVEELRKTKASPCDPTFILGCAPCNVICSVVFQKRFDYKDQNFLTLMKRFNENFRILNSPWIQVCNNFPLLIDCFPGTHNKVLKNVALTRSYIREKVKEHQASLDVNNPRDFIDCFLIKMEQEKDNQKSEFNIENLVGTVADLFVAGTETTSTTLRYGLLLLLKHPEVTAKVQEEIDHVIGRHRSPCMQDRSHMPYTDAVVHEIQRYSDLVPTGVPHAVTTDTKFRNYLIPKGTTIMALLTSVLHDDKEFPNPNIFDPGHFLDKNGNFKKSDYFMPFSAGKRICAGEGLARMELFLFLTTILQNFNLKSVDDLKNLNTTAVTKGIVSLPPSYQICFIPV
The series is described as follows: CYP Inhibition Assay (CYP2C8, human liver microsomes, paclitaxel substrate). The note with it: pH 7.4; pooled human liver microsomes 0.1 mg/mL, probe substrate paclitaxel. It is filed as in vitro ADME. In short, it runs like this: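 CYP2C8 activity read as 6α-hydroxypaclitaxel formation by LC-MS/MS, with % inhibition versus vehicle control. Reactions ran 5 min at 37° C, pH 7.4 phosphate buffer, 0.1 mg/mL pooled human liver microsomes, 1 mM NADPH, duplicate wells.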
On the technique in general: Microsomes from liver hold many membrane-bound enzymes, among them those of drug oxidation.

A value given as a limit tells only on which side of the number the result lay.

For orientation: IC50 means the concentration that gives 50% inhibition. What is called inhibition is how much of the control response was suppressed. A higher inhibition goes with a response far below the control. The molecule `CCN([C@H]1CCC2=Cc3c(cnn3-c3ccc(F)cc3)C[C@]2(C(=O)c2ncc(C(F)(F)F)s2)C1)S(=O)(=O)c1cn(C)cn1` [Example 216, N-ethyl-N-((4aS,6S)-1-(4-fluorophenyl)-4a-(5-(trifluoromethyl)thiazole-2-carbonyl)-4,4a,5,6,7,8-hexahydro-1H-benzo[f]indazol-6-yl)-1-methyl-1H-imidazole-4-sulfonamide] showed an IC50 on GR not above 100 nM. This molecule returned an inhibition at 5 min against CYP2C8 of 25 to 50%.

Consider `Cn1cnc(S(=O)(=O)N(CC2CC2)[C@H]2CCC3=Cc4c(cnn4-c4ccc(F)cc4)C[C@]3(C(=O)c3ncc(C(F)(F)F)s3)C2)c1` [Example 217, N-(cyclopropylmethyl)-N-((4aS,6S)-1-(4-fluorophenyl)-4a-(5-(trifluoromethyl)thiazole-2-carbonyl)-4,4a,5,6,7,8-hexahydro-1H-benzo[f]indazol-6-yl)-1-methyl-1H-imidazole-4-sulfonamide], for which, on GR, the IC50 is not above 100 nM. This molecule registered an inhibition at 5 min on CYP2C8 of 25 to 50%.

At GR, `Cn1cc(S(=O)(=O)N(C2CC2)[C@H]2CCC3=Cc4c(cnn4-c4ccc(F)cc4)C[C@]3(C(=O)c3ncc(C(F)(F)F)s3)C2)nn1` [Example 219, N-cyclopropyl-N-((4aS,6S)-1-(4-fluorophenyl)-4a-(5 (trifluoromethyl)thiazole-2-carbonyl)-4,4a,5,6,7,8-hexahydro-1H-benzo[f]indazol-6-yl)-1-methyl-1H-1,2,3-triazole-4-sulfonamide] showed an IC50 not above 100 nM. The inhibition at 5 min on CYP2C8 was 25 to 50%.

The molecule `CC(C)N([C@H]1CCC2=Cc3c(cnn3-c3ccc(F)cc3)C[C@]2(C(=O)c2cc(C(F)(F)F)ccn2)C1)S(=O)(=O)c1cn(C)cn1` [Example 221, N-((4aS,6S)-1-(4-fluorophenyl)-4a-(4-(trifluoromethyl)picolinoyl)-4,4a,5,6,7,8-hexahydro-1H-benzo[f]indazol-6-yl)-N-isopropyl-1-methyl-1H-imidazole-4-sulfonamide] gave an IC50 at GR not above 100 nM. In addition, the inhibition at 5 min against CYP2C8 is 50 to 75%.

In turn, `Cn1cc(S(=O)(=O)N(C2CC2)[C@H]2CCC3=Cc4c(cnn4-c4ccc(F)cc4)C[C@]3(C(=O)c3cc(C(F)(F)F)ccn3)C2)nn1` [Example 222, N-cyclopropyl-N-((4aS,6S)-1-(4-fluorophenyl)-4a-(4-(trifluoromethyl)picolinoyl)-4,4a,5,6,7,8-hexahydro-1H-benzo[f]indazol-6-yl)-1-methyl-1H-1,2,3-triazole-4-sulfonamide] had an IC50 against GR not above 100 nM. In addition, the inhibition at 5 min against CYP2C8 was 50 to 75%.

With `O=C(c1cc(C(F)(F)F)ccn1)[C@]12Cc3cnn(-c4ccc(F)cc4)c3C=C1CC[C@H](N(C1CC1)S(=O)(=O)c1ccc(Cl)nc1)C2` [Example 223, 6-chloro-N-cyclopropyl-N-((4aS,6S)-1-(4-fluorophenyl)-4a-(4-(trifluoromethyl)picolinoyl)-4,4a,5,6,7,8-hexahydro-1H-benzo[f]indazol-6-yl)pyridine-3-sulfonamide], on GR, the IC50 was not above 100 nM. The same molecule had an inhibition at 5 min on CYP2C8 of 25 to 50%.

`Cn1ccc(S(=O)(=O)N(C2CC2)[C@H]2CCC3=Cc4c(cnn4-c4ccc(F)cc4)C[C@]3(C(=O)c3cc(F)ccn3)C2)n1` [Example 224, N-cyclopropyl-N-((4aS,6S)-1-(4-fluorophenyl)-4a-(4-fluoropicolinoyl)-4,4a,5,6,7,8-hexahydro-1H-benzo[f]indazol-6-yl)-1-methyl-1H-pyrazole-3-sulfonamide] showed a half-inhibitory concentration (IC50) against GR not above 100 nM. This molecule returned an inhibition at 5 min on CYP2C8 of 25 to 50%.

The molecule `Cn1ccc(S(=O)(=O)N(C2CC2)[C@H]2CCC3=Cc4c(cnn4-c4ccc(F)cc4)C[C@]3(C(=O)c3cc(Cl)ccn3)C2)n1` [Example 225, N-((4aS,6S)-4a-(4-chloropicolinoyl)-1-(4-fluorophenyl)-4,4a,5,6,7,8-hexahydro-1H-benzo[f]indazol-6-yl)-N-cyclopropyl-1-methyl-1H-pyrazole-3-sulfonamide] returned an IC50 at GR not above 100 nM. On CYP2C8, this molecule registered an inhibition at 5 min of 50 to 75%.

`Cn1cnc(S(=O)(=O)N(C2CCC2)[C@H]2CCC3=Cc4c(cnn4-c4ccc(F)cc4)C[C@]3(C(=O)c3cc(C(F)(F)F)ccn3)C2)c1` [Example 226, N-cyclobutyl-N-((4aS,6S)-1-(4-fluorophenyl)-4a-(4-(trifluoromethyl)picolinoyl)-4,4a,5,6,7,8-hexahydro-1H-benzo[f]indazol-6-yl)-1-methyl-1H-imidazole-4-sulfonamide]: the IC50 against GR is not above 100 nM. The inhibition at 5 min against CYP2C8 lay within 50 to 75%.

For `O=C(c1cc(F)ccn1)[C@]12Cc3cnn(-c4ccc(F)cc4)c3C=C1CC[C@H](N(C1CC1)S(=O)(=O)c1ccc(F)cc1)C2` [Example 228, N-cyclopropyl-4-fluoro-N-((4aS,6S)-1-(4-fluorophenyl)-4a-(4-fluoropicolinoyl)-4,4a,5,6,7,8-hexahydro-1H-benzo[f]indazol-6-yl)benzenesulfonamide], the IC50 on GR is not above 100 nM. Besides, the inhibition at 5 min at CYP2C8 lay in the range of 50 to 75%.

Consider `Cn1cc(S(=O)(=O)N(CC2CC2)[C@H]2CCC3=Cc4c(cnn4-c4ccc(F)cc4)C[C@]3(C(=O)c3cc(C(F)(F)F)ccn3)C2)nn1` [Example 229, N-(cyclopropylmethyl)-N-((4aS,6S)-1-(4-fluorophenyl)-4a-(4-(trifluoromethyl)picolinoyl)-4,4a,5,6,7,8-hexahydro-1H-benzo[f]indazol-6-yl)-1-methyl-1H-1,2,3-triazole-4-sulfonamide], for which the IC50 against GR was not above 100 nM. The inhibition at 5 min against CYP2C8 is 50 to 75%.

For `Cn1cc(S(=O)(=O)N(C2CCC2)[C@H]2CCC3=Cc4c(cnn4-c4ccc(F)cc4)C[C@]3(C(=O)c3cc(C(F)(F)F)ccn3)C2)nn1` [Example 230, N-cyclobutyl-N-((4aS,6S)-1-(4-fluorophenyl)-4a-(4-(trifluoromethyl)picolinoyl)-4,4a,5,6,7,8-hexahydro-1H-benzo[f]indazol-6-yl)-1-methyl-1H-1,2,3-triazole-4-sulfonamide], the IC50 on GR is not above 100 nM. Also, at CYP2C8, the inhibition at 5 min was in the range of 50 to 75%.

For the molecule `CCN([C@H]1CCC2=Cc3c(cnn3-c3ccc(F)cc3)C[C@]2(C(=O)c2cc(C(F)(F)F)ccn2)C1)S(=O)(=O)c1cn(C)nn1` [Example 231, N-ethyl-N-((4aS,6S)-1-(4-fluorophenyl)-4a-(4-(trifluoromethyl)picolinoyl)-4,4a,5,6,7,8-hexahydro-1H-benzo[f]indazol-6-yl)-1-methyl-1H-1,2,3-triazole-4-sulfonamide], the IC50 against GR is not above 100 nM. The inhibition at 5 min against CYP2C8 lay within 25 to 50%.

`CC(C)N([C@H]1CCC2=Cc3c(cnn3-c3ccc(F)cc3)C[C@]2(C(=O)c2ncc(C(F)(F)F)s2)C1)S(=O)(=O)c1cnn(C)n1` [Example 233, N-((4aS,6S)-1-(4-fluorophenyl)-4a-(5-(trifluoromethyl)thiazole-2-carbonyl)-4,4a,5,6,7,8-hexahydro-1H-benzo[f]indazol-6-yl)-N-isopropyl-2-methyl-2H-1,2,3-triazole-4-sulfonamide]: the IC50 on GR is not above 100 nM. The same molecule came in with an inhibition at 5 min at CYP2C8 of 75 to 90%.

On GR, `CC(C)N([C@H]1CCC2=Cc3c(cnn3-c3ccc(F)cc3)C[C@]2(C(=O)c2cc(C(F)(F)F)ccn2)C1)S(=O)(=O)c1cnn(C)n1` [Example 234, N-((4aS,6S)-1-(4-fluorophenyl)-4a-(4-(trifluoromethyl)picolinoyl)-4,4a,5,6,7,8-hexahydro-1H-benzo[f]indazol-6-yl)-N-isopropyl-2-methyl-2H-1,2,3-triazole-4-sulfonamide] registered an IC50 not above 100 nM. Also, on CYP2C8, the inhibition at 5 min lay within 75 to 90%.
